In ChEMBL document CHEMBL1149355, “Structure-activity relationships for the linker in a series of pyridinyl-alkynes that are antagonists of the metabotropic glutamate receptor 5 (mGluR5)” (Bioorg Med Chem Lett, 2006):
The source made the active and inactive calls. The calls are words filed in the database; no cut-off is given here.

How the values were obtained:
[1] = target: Metabotropic glutamate receptor 1 (Homo sapiens) (UniProt Q13255); test: Activity at human mGluR1 assessed as inhibition of glutamate-induced calcium influx by FLIPR assay; format: functional
Sequence of Metabotropic glutamate receptor 1 (Homo sapiens) (Q13255 19-1194 limits assumed): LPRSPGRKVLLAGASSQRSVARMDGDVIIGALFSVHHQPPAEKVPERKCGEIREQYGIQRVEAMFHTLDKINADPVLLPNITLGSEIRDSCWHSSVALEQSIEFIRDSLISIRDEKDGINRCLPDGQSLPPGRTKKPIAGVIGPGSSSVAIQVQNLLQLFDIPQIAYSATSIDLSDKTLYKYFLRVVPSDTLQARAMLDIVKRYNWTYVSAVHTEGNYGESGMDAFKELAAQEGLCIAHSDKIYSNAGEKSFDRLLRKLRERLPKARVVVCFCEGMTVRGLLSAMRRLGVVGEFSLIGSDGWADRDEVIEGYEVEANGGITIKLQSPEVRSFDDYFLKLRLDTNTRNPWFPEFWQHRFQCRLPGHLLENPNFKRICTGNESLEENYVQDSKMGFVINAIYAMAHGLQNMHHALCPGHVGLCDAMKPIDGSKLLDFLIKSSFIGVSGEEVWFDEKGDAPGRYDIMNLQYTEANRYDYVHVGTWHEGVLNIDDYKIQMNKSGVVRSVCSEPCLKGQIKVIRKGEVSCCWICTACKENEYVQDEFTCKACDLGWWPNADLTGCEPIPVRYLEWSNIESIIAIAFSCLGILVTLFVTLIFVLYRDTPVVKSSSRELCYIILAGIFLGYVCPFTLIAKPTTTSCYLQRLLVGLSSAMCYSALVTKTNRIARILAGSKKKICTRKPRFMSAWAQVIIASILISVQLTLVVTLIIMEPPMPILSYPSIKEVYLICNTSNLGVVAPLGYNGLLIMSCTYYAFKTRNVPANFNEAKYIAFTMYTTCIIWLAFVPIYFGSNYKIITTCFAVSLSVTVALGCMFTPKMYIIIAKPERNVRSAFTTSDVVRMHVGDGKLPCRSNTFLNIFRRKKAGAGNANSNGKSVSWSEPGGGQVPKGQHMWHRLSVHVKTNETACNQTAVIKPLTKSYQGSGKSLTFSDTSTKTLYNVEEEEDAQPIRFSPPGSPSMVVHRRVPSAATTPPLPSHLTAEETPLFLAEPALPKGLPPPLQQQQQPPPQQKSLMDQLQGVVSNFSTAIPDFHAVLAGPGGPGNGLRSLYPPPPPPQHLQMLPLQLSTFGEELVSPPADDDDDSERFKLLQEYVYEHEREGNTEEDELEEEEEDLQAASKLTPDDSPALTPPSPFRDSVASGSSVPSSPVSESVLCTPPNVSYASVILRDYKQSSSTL

[2] = target: Metabotropic glutamate receptor 5 (Homo sapiens, UniProt P41594); test: Activity at human mGluR5d assessed as inhibition of glutamate-induced calcium influx by FLIPR assay; format: functional
Sequence of Metabotropic glutamate receptor 5 (P41594 whole entry): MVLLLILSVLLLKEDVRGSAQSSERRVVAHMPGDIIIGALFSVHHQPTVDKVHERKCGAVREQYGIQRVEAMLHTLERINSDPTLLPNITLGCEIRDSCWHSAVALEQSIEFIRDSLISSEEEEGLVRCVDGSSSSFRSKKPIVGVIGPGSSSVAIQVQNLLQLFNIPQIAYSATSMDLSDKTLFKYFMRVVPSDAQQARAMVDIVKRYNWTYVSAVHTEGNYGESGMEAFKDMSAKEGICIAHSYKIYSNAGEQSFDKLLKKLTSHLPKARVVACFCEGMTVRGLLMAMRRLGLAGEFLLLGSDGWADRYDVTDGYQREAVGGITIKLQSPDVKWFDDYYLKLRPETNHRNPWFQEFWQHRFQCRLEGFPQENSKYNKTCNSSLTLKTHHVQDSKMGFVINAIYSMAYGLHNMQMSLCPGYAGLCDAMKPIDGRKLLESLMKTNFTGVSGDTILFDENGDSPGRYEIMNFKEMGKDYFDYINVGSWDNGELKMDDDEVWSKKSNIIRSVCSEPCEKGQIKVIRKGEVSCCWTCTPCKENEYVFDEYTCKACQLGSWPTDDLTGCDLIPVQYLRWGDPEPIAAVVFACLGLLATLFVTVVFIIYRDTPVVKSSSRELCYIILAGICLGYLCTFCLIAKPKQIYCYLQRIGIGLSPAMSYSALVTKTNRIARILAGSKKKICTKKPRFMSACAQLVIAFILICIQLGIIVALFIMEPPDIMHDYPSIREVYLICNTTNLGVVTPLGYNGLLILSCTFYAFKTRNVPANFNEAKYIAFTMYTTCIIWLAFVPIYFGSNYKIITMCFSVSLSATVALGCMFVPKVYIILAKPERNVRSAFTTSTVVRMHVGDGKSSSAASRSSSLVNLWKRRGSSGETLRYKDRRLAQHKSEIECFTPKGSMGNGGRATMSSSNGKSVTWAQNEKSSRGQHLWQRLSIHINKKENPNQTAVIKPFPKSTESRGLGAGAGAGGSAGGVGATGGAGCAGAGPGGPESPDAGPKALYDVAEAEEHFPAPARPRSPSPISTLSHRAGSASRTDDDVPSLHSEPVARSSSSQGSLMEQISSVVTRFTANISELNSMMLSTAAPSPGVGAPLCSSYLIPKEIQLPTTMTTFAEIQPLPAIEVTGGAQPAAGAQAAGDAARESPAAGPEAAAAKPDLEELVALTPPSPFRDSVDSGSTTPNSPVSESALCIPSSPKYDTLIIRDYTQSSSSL

[3] = target: Metabotropic glutamate receptor 3 (Homo sapiens) (UniProt Q14832); test: Activity at human mGluR3 assessed as inhibition of glutamate-induced calcium influx by FLIPR assay; format: functional
Sequence of Metabotropic glutamate receptor 3 (Homo sapiens) (Q14832 23-879 limits assumed): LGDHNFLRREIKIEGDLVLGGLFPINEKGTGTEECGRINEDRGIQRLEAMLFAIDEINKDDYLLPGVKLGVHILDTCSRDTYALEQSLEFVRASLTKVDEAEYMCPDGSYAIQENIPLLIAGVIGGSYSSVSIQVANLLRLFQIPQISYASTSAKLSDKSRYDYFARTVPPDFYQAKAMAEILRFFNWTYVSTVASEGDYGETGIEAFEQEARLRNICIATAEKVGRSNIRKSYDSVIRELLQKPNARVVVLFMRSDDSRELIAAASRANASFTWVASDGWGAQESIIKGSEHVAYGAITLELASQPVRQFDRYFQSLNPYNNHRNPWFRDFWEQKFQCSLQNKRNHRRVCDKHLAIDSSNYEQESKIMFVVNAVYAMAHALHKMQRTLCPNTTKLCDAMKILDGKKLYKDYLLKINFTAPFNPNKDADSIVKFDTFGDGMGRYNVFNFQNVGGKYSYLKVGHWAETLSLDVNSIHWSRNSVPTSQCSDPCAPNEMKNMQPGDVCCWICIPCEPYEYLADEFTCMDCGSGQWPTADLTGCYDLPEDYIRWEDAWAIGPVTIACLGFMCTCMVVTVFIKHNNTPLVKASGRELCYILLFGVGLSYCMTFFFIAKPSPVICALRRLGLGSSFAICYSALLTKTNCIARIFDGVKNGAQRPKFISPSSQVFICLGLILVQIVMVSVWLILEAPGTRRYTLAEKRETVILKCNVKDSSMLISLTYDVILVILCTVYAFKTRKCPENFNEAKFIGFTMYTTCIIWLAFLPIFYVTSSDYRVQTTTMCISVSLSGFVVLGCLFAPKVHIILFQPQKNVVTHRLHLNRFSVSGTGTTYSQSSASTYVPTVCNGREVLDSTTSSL

[4] = target: Metabotropic glutamate receptor 8 (Homo sapiens) (UniProt O00222); test: Activity at human mGluR8 assessed as inhibition of glutamate-induced calcium influx by FLIPR assay; format: functional
Sequence of Metabotropic glutamate receptor 8 (Homo sapiens) (O00222 whole entry): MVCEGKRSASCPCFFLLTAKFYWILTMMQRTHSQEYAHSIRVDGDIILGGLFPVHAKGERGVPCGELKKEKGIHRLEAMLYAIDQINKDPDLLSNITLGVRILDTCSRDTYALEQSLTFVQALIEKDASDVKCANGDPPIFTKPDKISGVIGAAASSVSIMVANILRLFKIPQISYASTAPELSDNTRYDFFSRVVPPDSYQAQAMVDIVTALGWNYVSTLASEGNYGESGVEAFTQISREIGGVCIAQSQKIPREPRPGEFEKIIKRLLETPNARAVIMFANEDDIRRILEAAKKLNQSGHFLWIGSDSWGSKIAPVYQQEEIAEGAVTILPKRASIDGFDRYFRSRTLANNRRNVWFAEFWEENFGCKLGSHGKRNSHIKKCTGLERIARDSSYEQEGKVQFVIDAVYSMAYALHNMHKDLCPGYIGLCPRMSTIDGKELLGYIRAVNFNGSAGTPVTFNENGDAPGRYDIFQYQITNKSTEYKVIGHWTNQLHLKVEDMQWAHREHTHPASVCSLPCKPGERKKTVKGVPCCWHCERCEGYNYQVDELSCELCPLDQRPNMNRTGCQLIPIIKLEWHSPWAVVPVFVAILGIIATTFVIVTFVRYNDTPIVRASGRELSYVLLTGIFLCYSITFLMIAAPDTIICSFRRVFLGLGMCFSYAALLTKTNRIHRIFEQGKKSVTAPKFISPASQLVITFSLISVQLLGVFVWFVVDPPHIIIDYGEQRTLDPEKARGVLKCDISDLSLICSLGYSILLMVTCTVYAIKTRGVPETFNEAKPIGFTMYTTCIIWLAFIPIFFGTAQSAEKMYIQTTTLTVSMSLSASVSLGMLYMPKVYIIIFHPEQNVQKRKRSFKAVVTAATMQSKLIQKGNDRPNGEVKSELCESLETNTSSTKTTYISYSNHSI

[5] = target: Metabotropic glutamate receptor 4 (Homo sapiens) (UniProt Q14833); test: Activity at human mGluR4 assessed as inhibition of glutamate-induced calcium influx by FLIPR assay; format: functional
Sequence of Metabotropic glutamate receptor 4 (Homo sapiens) (Q14833 whole entry): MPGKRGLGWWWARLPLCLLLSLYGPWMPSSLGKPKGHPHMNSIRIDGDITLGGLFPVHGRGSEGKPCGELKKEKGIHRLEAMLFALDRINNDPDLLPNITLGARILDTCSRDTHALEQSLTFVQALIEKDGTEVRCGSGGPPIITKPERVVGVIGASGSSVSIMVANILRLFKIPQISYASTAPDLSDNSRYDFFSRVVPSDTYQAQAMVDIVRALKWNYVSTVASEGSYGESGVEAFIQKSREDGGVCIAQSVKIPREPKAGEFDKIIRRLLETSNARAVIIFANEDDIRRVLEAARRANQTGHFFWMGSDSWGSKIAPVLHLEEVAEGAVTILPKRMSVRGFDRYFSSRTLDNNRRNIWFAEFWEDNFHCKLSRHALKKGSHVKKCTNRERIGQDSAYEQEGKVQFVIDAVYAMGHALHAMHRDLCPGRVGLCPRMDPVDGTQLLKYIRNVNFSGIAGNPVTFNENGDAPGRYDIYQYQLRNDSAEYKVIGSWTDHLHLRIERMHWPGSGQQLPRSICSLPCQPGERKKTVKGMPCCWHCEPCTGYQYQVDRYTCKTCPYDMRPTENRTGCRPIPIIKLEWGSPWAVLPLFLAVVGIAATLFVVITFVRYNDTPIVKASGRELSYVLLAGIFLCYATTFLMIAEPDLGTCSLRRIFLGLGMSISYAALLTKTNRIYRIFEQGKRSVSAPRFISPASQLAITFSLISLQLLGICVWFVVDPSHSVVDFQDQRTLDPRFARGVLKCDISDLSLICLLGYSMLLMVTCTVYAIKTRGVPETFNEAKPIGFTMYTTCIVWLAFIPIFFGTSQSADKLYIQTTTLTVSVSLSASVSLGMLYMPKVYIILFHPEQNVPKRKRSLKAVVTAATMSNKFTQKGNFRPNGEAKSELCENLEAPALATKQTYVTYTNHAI

[6] = system: Canis familiaris; test: Inhibition of transient lower esophageal sphincter relaxation in dog at 3.9 umol/kg, iv; format: functional, Canis lupus familiaris; design: scale not given: the % may be the effect or the level left
[7] = Intrinsic clearance in rat liver microsomes; format: ADME, Microsome
[8] = Half life in dog; format: ADME, organism-based, Canis lupus familiaris; settings: in vivo
[9] = Clearance in dog; format: ADME, organism-based, Canis lupus familiaris; settings: in vivo
[10] = Volume of distribution in dog; format: ADME, organism-based, Canis lupus familiaris; settings: in vivo, read-out: Vss

Cc1cccc(C#CCOc2cccc(Cl)c2)n1
Activity [1]: inactive

Cc1cccc(C#CCSc2ccccc2)n1
IC50 [2]: 589 nM

Cc1cccc(C#CC[S+]([O-])c2ccccc2)n1 (configuration not stated)
IC50 [2]: > 10000 nM

Cc1cccc(C#Cc2cc3ccccc3s2)n1
IC50 [2]: 306 nM

Cc1cccc(C#CCNc2ccccc2)n1
IC50 [2]: 223 nM

Cc1cccc(C#CCC(C)c2ccccc2)n1 (configuration not stated)
IC50 [2]: 59 nM

Cc1cccc(C#CCN(C)c2ccccc2)n1
IC50 [2]: 6730 nM

Cc1cccc(C#CC(C)Nc2cccc(Cl)c2)n1 (configuration not stated)
Activity [1]: inactive | IC50 [2]: 709 nM

Cc1cccc(C#CCCCc2ccccc2)n1
IC50 [2]: 258 nM

Cc1cccc(C#CCNC(=O)Nc2cccc(Cl)c2)n1
IC50 [2]: > 10000 nM

Cc1cccc(C#CC(C)Sc2cccc(Cl)c2)n1 (configuration not stated)
Activity [1]: inactive | IC50 [2]: 118 nM

Cc1cccc(C#CC(C)Oc2cccc(Cl)c2)n1 (configuration not stated)
Activity [1]: inactive | IC50 [2]: 281 nM

Cc1cccc(C#CC(Sc2cccc(Cl)c2)C(C)C)n1 (configuration not stated)
IC50 [2]: 461 nM

Cc1cccc(C#CCSc2cccc(Cl)c2)n1
Activity [1]: inactive | IC50 [2]: 43 nM

Cc1cccc(C#CC(=O)Nc2ccccc2)n1
IC50 [2]: > 10000 nM

Cc1cccc(C#CCCc2ccccc2)n1
Activity [3]: inactive | Activity [4]: inactive | Activity [5]: inactive | IC50 [2]: 78 nM

Cc1cccc(C#CCNC(=O)c2cccc(Cl)c2)n1
IC50 [2]: 2610 nM

CCC(C#Cc1cccc(C)n1)Sc1cccc(Cl)c1 (configuration not stated)
IC50 [2]: 862 nM

Cc1cccc(C#CCCc2cccc(Cl)c2)n1
Activity [6]: 31% | Activity [3]: inactive | microsomal CLint [7]: 197 µL/min/mg | Activity [4]: inactive | Activity [5]: inactive | half-life [8]: 2 h | clearance [9]: 66 mL/min/kg | Vd [10]: 3.2 L/kg | Activity [1]: inactive | IC50 [2]: 5 nM

Cc1cccc(C#CCNc2cccc(Cl)c2)n1
Activity [1]: inactive | IC50 [2]: 174 nM
